The values that follow come from patent US20230106174A1, “RAS INHIBITORS” (Revolution Medicines, Inc., priority 2021, published 2023).

One data set deals with T1, K-Ras G12C (Homo sapiens, UniProt P01116+P62937, G12C).
T1 construct: endogenous in cells; host or cells: NCI-H358
Kind of data set: pERK potency assay in NCI-H358 cells (AlphaLISA SureFire or In-Cell Western). It counts as cell-based. To be noted: 4 hours incubation. The protocol:
The purpose of this assay was to measure the ability of test compounds to inhibit K-Ras in cells. […] This procedure measures a decrease in cellular pERK in response to test compounds. The procedure described below in NCI-H358 cells is applicable to K-Ras G12C. […]
NCI-H358 cells were grown and maintained using media and procedures recommended by the ATCC. On the day prior to compound addition, cells were plated in 384-well cell culture plates (40 μl/well) and grown overnight in a 37° C., 5% CO2 incubator. Test compounds were prepared in 10, 3-fold dilutions in DMSO, with a high concentration of 10 mM. On the day of assay, 40 nL of test compound was added to each well of cell culture plate using an Echo550 liquid handler (LabCyte®). Concentrations of test compound were tested in duplicate. After compound addition, cells were incubated 4 hours at 37° C., 5% CO2. Following incubation, culture medium was removed and cells were washed once with phosphate buffered saline.
In some experiments, cellular pERK level was determined using the AlphaLISA SureFire Ultra p-ERK1/2 Assay Kit (PerkinElmer). Cells were lysed in 25 μL lysis buffer, with shaking at 600 RPM at room temperature. Lysate (10 μL) was transferred to a 384-well Opti-plate (PerkinElmer) and 5 μL acceptor mix was added. After a 2-hour incubation in the dark, 5 μL donor mix was added, the plate was sealed, and incubated 2 hours at room temperature. Signal was read on an Envision plate reader (PerkinElmer) using standard AlphaLISA settings. Analysis of raw data was carried out in Excel (Microsoft) and Prism (GraphPad). Signal was plotted vs. the decadal logarithm of compound concentration, and IC50 was determined by fitting a 4-parameter sigmoidal concentration response model.
In other experiments, cellular pERK was determined by In-Cell Western. Following compound treatment, cells were washed twice with 200 μL tris buffered saline (TBS) and fixed for 15 minutes with 150 μL 4% paraformaldehyde in TBS. Fixed cells were washed 4 times for 5 minutes with TBS containing 0.1% Triton X-100 (TBST) and then blocked with 100 μL Odyssey blocking buffer (LI-COR) for 60 minutes at room temperature. […] Cells were washed 4 times for 5 minutes with TBST. Secondary antibody (IR-800CW rabbit, LI-COR, diluted 1:800) and DNA stain DRAQ5 (LI-COR, diluted 1:2000) were added and incubated 1-2 hours at room temperature. Cells were washed 4 times for 5 minutes with TBST. Plates were scanned on a Li—COR Odyssey CLx Imager. Analysis of raw data was carried out in Excel (Microsoft) and Prism (GraphPad). Signal was plotted vs. the decadal logarithm of compound concentration, and IC50 was determined by fitting a 4-parameter sigmoidal concentration response model.
On the technique in general: Bead proximity is the source of the signal in Alpha formats.

For another data set, the system named is NCI-H358 (K-Ras G12C). Kind of data set: CellTiter-Glo cell viability assay, 5-day treatment, NCI-H358. It counts as cell-based. The conditions noted are these: Homo sapiens, NCI-H358, 120 h. The text has this: Determination of Cell Viability in RAS Mutant Cancer Cell Lines
Protocol: CellTiter-Glo® Cell Viability Assay
Note—The following protocol describes a procedure for monitoring cell viability of K-Ras mutant cancer cell lines in response to a compound of the invention. Other RAS isoforms may be employed, though the number of cells to be seeded will vary based on cell line used.
The purpose of this cellular assay was to determine the effects of test compounds on the proliferation of three human cancer cell lines (NCI-H358 (K-Ras G12C), AsPC-1 (K-Ras G12D), and Capan-1 (K-Ras G12V)) over a 5-day treatment period by quantifying the amount of ATP present at endpoint using the CellTiter-Glo® 2.0 Reagent (Promega).
Cells were seeded at 250 cells/well in 40 μL of growth medium in 384-well assay plates and incubated overnight in a humidified atmosphere of 5% CO2 at 37° C. On the day of the assay, 10 mM stock solutions of test compounds were first diluted into 3 mM solutions with 100% DMSO. Well-mixed compound solutions (15 μL) were transferred to the next wells containing 30 μL of 100% DMSO, and repeated until a 9-concentration 3-fold serial dilution was made (starting assay concentration of 10 μM). Test compounds (132.5 nL) were directly dispensed into the assay plates containing cells. The plates were shaken for 15 seconds at 300 rpm, centrifuged, and incubated in a humidified atmosphere of 5% CO2 at 37° C. for 5 days. On day 5, assay plates and their contents were equilibrated to room temperature for approximately 30 minutes. CellTiter-Glo® 2.0 Reagent (25 μL) was added, and plate contents were mixed for 2 minutes on an orbital shaker before incubation at room temperature for 10 minutes. Luminescence was measured using the PerkinElmer Enspire. Data were normalized by the following: (Sample signal/Avg. DMSO)*100. The data were fit using a four-parameter logistic fit.
In general terms: Cellular ATP, detected with luciferase, serves as a proxy for viable cell number.

A further data set addresses K-Ras G13C (Homo sapiens, UniProt P01116+P62937, G13C). Kind of data set: Raf-Ras (FRET or MOA) binding assay: disruption of BRAF RBD interaction with K-Ras G13C in presence of Cyclophilin A. It counts as biochemical. The conditions noted are these: read-out: IC50 in the Raf-Ras (FRET or MOA) binding assay re: K-Ras G13C. The method, then:
As used herein, the term “linker” refers to a divalent organic moiety connecting a first moiety (e.g., a macrocyclic moiety) to a second moiety (e.g., a cross-linking group). […] Compound is present in plate wells as a 10-point 3-fold dilution series starting at a final concentration of 30 μM. After incubation at 25° C. for 3 hours, a mixture of Anti-His Eu-W1024 and anti-GST allophycocyanin is then added to assay sample wells at final concentrations of 10 nM and 50 nM, respectively, and the reaction incubated for an additional 1.5 hours. TR-FRET signal is read on a microplate reader (Ex 320 nm, Em 665/615 nm). Compounds that facilitate disruption of a Ras:RAF complex are identified as those eliciting a decrease in the TR-FRET ratio relative to DMSO control wells.
Disruption of B-Raf Ras-Binding Domain (BRAF RBD) Interaction with K-Ras by Compounds of the Invention (Also Called a FRET Assay or an MOA Assay)
Note—The following protocol describes a procedure for monitoring disruption of K-Ras G12C (GMP-PNP) binding to BRAF^RBD by a compound of the invention. This protocol may also be executed substituting other Ras proteins or nucleotides.
The purpose of this biochemical assay was to measure the ability of test compounds to facilitate ternary complex formation between a nucleotide-loaded K-Ras isoform and Cyclophilin A; the resulting ternary complex disrupts binding to a BRAF^RBD Construct, inhibiting K-Ras signaling through a RAF effector. Data was reported as IC50 values.
In assay buffer containing 25 mM HEPES pH 7.3, 0.002% Tween20, 0.1% BSA, 100 mM NaCl and 5 mM MgCl2, tagless Cyclophilin A, His6-K-Ras-GMPPNP, and GST-BRAF^RBD were combined in a 384-well assay plate at final concentrations of 25 μM, 12.5 nM and 50 nM, respectively. Compound was present in plate wells as a 10-point 3-fold dilution series starting at a final concentration of 30 μM. […] TR-FRET signal was read on a microplate reader (Ex 320 nm, Em 665/615 nm). […]

For a further data set, the system named is SW1573. To be noted: Canon et al., Nature 575:217-223 (2019); cited from earlier work.
The conditions of data set [1]: ester bond; 18-membered ring; EDCI/HOBT/DIPEA; DCM; 6.8 mM.

T1 sequence (P01116 1-188 isoform P01116-2 G12C): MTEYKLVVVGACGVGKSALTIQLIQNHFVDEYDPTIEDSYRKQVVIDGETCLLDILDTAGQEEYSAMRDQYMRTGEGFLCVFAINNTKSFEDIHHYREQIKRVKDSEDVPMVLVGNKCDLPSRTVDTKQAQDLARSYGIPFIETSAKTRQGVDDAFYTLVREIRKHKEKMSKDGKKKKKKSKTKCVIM
T1 sequence (P62937 whole entry): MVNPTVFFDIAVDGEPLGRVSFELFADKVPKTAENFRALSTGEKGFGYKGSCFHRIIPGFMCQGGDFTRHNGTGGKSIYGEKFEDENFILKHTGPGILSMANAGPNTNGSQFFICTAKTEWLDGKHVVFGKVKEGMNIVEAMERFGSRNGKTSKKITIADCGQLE
Chain of K-Ras G13C (P01116 1-188 isoform P01116-2 G13C): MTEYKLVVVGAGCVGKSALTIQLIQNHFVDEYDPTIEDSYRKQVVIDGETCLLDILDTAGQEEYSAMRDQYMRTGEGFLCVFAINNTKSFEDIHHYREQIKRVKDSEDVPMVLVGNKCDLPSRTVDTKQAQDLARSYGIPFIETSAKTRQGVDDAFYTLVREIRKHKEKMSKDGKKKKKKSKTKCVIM
Chain of K-Ras G13C (P62937 whole entry): as the sequence (P62937 whole entry) above

Consider `CCn1c(-c2cccnc2[C@H](C)OC)c2c3cc(ccc31)N1CCO[C@@H](C[C@H](NC(=O)[C@H](C(C)C)N(C)C(=O)N3CCC4(CC3)CN(C(=O)/C=C/CF)C4)C(=O)N3CCC[C@H](N3)C(=O)OCC(C)(C)C2)C1` (atropisomer, axis not shown) [Example A128], for which the 50% inhibitory concentration (IC50) against K-Ras G12C and in the data set with NCI-H358 (K-Ras G12C) was over 1000 nM throughout. Turning to `CCn1c(-c2cccnc2[C@H](C)OC)c2c3cc(ccc31)-c1cccc(c1)C[C@H](NC(=O)[C@@H](COC1CN(C(=O)C#CC(C)(C)N(C)C)C1)N(C)C)C(=O)N1CCC[C@H](N1)C(=O)OCC(C)(C)C2` (atropisomer, axis not shown) [Example A169], the IC50 on K-Ras G13C was over 1500 nM. On the same count and under the same terms, the result for `CCn1c(-c2cccnc2[C@H](C)OC)c2c3cc(ccc31)N1CCS[C@@H](C[C@H](NC(=O)[C@@H](COC3CN(C(=O)C#CC(C)(C)N(C)C)C3)N(C)C)C(=O)N3CCC[C@H](N3)C(=O)OCC(C)(C)C2)C1` (atropisomer, axis not shown) [Example A171] reads over 1500 nM; that for `CCn1c(-c2cccnc2[C@H](C)OC)c2c3cc(ccc31)N1CCS[C@@H](C[C@H](NC(=O)[C@@H](COC3CN(C(=O)C#CC(C)(C)N(C)C)C3)C(C)C)C(=O)N3CCC[C@H](N3)C(=O)OCC(C)(C)C2)C1` (atropisomer, axis not shown) [Example A175], over 1500 nM. `C=CC(=O)N1CCOC2(CCN(C(=O)N(C)[C@H](C(=O)N[C@H]3Cc4nccc(n4)-c4ccc5c(c4)c(c(-c4cccnc4[C@H](C)OC)n5CC)CC(C)(C)COC(=O)[C@@H]4CCCN(N4)C3=O)C(C)C)CC2)C1` (atropisomer, axis not shown) [Example A191]: the IC50 on K-Ras G12C and in the data set with NCI-H358 (K-Ras G12C) was over 1000 nM throughout.

In the case of `CCn1c(-c2cccnc2[C@H](C)OC)c2c3cc(ccc31)C1=CCCN(C1)C[C@H](NC(=O)[C@H](C(C)C)N(C)C(=O)N1CCC3(CCN(C(=O)/C=C/CN(C)C)C3)CC1)C(=O)N1CCC[C@H](N1)C(=O)OCC(C)(C)C2` (atropisomer, axis not shown) [Example A192], the IC50 at K-Ras G12C and with NCI-H358 (K-Ras G12C) was over 1000 nM each time. Take `C=CC(=O)N1CCN(c2nc(=O)n(-c3c(C)ccnc3C(C)C)c3nc(-c4c(O)cccc4F)c(F)cc23)[C@@H](C)C1` [AMG510]: in the data set on SW1573, the “sensitivity of cell line SW1573” value is “insensitive”.

Consider “tert-butyl ((6^3S,4S,Z)-1^1-ethyl-1^2-(2-((S)-1-methoxyethyl)pyridin-3-yl)-10,10-dimethyl-5,7-dioxo-6^1,6^2,6^3,6^4,6^5,6^6-hexahydro-1^1H-8-oxa-2(5,3)-oxadiazola-1(5,3)-indola-6(1,3)-pyridazinacycloundecaphane-4-yl)carbamate”, for which the ring closure, isolated yield in data set [1] was determined as 18%.

For orientation: IC50 means the concentration needed to halve the response being measured.
